Test results: ChEMBL document CHEMBL4840354, “Identification of Diarylurea Inhibitors of the Cardiac-Specific Kinase TNNI3K by Designing Selectivity Against VEGFR2, p38α, and B-Raf” (J Med Chem, 2021)
pIC50: −log10 of the molar value.

Tests used:
[1] = target: Mitogen-activated protein kinase 14 (Homo sapiens, UniProt Q16539); assay: Inhibition of p38alpha (unknown origin)
Homo sapiens [2] = organism: Homo sapiens; assay: Selectivity index, ratio of IC50 for inhibition of VEGFR2 (unknown origin) to IC50 for inhibition of TNNI3K (unknown origin)
Homo sapiens [3] = organism: Homo sapiens; assay: Selectivity index, ratio of IC50 for inhibition of p38alpha (unknown origin) to IC50 for inhibition of TNNI3K (unknown origin)
[4] = target: Serine/threonine-protein kinase B-raf (Homo sapiens, UniProt P15056); assay: Inhibition of B-Raf (unknown origin)
Sequence of Serine/threonine-protein kinase B-raf (P15056 whole entry): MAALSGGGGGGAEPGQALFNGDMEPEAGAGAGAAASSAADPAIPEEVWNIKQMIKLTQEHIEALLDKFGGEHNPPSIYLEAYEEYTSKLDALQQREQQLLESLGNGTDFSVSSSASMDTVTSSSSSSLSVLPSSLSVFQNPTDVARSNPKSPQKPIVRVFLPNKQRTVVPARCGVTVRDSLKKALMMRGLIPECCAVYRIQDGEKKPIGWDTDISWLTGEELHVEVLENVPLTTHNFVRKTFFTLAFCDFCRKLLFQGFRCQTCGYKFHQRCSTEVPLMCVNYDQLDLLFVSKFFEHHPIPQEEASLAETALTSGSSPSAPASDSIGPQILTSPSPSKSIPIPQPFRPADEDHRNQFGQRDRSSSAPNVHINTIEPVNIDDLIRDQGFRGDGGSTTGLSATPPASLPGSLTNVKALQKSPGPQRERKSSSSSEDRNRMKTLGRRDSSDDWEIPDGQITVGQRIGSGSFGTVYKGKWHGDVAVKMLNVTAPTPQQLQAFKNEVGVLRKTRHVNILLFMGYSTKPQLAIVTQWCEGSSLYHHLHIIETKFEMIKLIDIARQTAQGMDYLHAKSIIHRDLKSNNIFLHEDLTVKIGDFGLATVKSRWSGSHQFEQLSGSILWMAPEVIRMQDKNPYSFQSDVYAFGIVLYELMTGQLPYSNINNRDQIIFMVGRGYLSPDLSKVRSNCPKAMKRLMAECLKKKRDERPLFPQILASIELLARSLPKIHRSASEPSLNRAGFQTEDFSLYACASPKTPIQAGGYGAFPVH

[5] = target: T1, Serine/threonine-protein kinase TNNI3K (Homo sapiens, UniProt Q59H18); assay: Inhibition of TNNI3K (unknown origin)
T1 sequence (Q59H18 whole entry): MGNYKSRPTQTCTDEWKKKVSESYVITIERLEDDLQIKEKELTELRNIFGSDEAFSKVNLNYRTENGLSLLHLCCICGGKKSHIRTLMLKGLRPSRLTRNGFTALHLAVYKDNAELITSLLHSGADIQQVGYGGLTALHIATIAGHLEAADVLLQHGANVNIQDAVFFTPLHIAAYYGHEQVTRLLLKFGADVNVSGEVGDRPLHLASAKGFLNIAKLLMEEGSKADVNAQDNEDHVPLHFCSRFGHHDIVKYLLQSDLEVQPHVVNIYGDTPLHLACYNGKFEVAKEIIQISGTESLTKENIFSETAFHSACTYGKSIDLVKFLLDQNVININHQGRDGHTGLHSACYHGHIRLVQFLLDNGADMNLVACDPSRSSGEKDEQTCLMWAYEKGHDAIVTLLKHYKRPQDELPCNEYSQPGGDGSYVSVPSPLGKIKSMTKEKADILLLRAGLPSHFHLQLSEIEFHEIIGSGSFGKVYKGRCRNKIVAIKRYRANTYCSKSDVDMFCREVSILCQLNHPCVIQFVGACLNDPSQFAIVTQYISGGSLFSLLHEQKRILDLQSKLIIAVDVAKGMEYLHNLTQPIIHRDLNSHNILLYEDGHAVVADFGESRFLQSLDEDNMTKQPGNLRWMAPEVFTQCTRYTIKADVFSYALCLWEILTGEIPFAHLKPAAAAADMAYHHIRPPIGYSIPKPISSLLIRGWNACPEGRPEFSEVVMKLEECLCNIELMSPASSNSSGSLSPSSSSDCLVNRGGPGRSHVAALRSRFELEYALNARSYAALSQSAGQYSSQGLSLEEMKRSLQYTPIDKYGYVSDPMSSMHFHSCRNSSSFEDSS

[6] = target: Vascular endothelial growth factor receptor 2 (Homo sapiens, UniProt P35968); assay: Inhibition of GST-6His tagged VEGFR2 (unknown origin) using biotin-aminohexyl-EEEEYFELVAKKKK-NH2 peptide substrate incubated for 90 mins by HTRF assay
Sequence of Vascular endothelial growth factor receptor 2 (P35968 whole entry): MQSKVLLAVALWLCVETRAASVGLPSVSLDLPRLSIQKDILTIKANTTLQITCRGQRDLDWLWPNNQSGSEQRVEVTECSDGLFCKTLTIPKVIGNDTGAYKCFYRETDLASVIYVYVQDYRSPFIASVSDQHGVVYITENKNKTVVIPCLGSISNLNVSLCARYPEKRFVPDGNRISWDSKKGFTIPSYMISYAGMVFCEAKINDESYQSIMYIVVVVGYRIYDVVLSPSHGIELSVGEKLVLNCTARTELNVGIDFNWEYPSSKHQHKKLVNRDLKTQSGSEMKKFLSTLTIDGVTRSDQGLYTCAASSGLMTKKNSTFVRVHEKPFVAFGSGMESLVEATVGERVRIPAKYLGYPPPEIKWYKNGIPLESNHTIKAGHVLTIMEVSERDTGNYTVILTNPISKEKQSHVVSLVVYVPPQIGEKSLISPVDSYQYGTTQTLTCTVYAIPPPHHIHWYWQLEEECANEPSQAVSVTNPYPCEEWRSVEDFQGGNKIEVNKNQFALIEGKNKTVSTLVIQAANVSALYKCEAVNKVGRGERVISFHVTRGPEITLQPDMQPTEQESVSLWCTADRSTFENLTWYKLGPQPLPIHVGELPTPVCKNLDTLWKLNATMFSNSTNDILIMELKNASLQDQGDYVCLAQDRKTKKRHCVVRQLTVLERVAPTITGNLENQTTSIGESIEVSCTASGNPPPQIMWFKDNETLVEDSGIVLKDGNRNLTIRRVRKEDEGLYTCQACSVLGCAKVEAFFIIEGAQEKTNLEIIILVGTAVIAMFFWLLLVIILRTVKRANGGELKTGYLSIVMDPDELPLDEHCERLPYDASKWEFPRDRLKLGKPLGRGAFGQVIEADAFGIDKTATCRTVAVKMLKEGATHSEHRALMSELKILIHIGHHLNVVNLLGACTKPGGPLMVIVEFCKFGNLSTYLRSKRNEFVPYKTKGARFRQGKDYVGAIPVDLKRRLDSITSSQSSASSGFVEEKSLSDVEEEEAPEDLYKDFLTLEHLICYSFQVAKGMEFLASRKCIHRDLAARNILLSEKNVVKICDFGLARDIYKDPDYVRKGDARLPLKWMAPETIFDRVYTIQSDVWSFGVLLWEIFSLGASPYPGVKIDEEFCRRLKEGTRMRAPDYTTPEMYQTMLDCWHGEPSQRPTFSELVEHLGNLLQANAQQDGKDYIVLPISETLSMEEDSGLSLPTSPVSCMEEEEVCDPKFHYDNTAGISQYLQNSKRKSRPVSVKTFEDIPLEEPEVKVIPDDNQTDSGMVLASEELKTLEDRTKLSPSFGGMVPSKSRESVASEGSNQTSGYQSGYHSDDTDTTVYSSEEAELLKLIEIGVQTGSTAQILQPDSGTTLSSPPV

Sequence of Mitogen-activated protein kinase 14 (Q16539 whole entry): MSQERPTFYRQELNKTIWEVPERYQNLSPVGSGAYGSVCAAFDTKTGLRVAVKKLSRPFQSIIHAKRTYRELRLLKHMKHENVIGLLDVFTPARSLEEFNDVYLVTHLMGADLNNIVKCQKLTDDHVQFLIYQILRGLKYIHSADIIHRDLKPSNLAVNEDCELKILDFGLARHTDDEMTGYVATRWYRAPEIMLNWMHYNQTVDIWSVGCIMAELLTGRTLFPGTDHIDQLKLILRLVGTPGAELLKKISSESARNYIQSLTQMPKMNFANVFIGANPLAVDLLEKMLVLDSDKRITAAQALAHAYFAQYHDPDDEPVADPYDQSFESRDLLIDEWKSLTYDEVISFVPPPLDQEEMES

pIC50 [1]	Ratio IC50 (Homo sapiens [2])	Ratio IC50 (Homo sapiens [3])	pIC50 [4]	pIC50 [5]	pIC50 [6]	Compound
7.49	0.1	1	6.49	7.49	8.49	O=C(Nc1ccc(Oc2ccnc3[nH]ccc23)cc1)Nc1cccc(C(F)(F)F)c1
6.10	0.08	32	7.20	7.64	8.70	COc1cc2ncnc(Oc3ccc(NC(=O)Nc4cccc(C(F)(F)F)c4)cc3)c2cc1OC
6.00	1	25	6.30	7.40	7.40	CNc1cc(Oc2ccc(NC(=O)Nc3cccc(C(C)(F)F)c3)cc2)ncn1
4.60	1	63	< 5.70	6.40	6.40	CNc1cc(Oc2ccc(NC(=O)Nc3cccc(CF)c3)cc2)ncn1
6.70	0.4	4	6.20	7.30	7.70	O=C(Nc1ccc(Oc2ccncc2)cc1)Nc1cccc(C(F)(F)F)c1
6.80	0.13	8	7.80	7.70	8.60	CNc1cc(Oc2ccc(NC(=O)Nc3cccc(C(F)(F)F)c3)c(F)c2F)ncn1
7.00	0.08	1.6	6.70	7.20	8.30	O=C(Nc1ccc(Oc2ccnc3ccccc23)cc1)Nc1cccc(C(F)(F)F)c1
6.20	0.3	3.9	6.00	6.80	7.30	O=C(Nc1ccc(Oc2ccncn2)cc1)Nc1cccc(C(F)(F)F)c1
5.30	1	63	6.00	7.10	7.10	CNc1cc(Oc2ccc(NC(=O)Nc3cccc(C(C)F)c3)cc2)ncn1 (stereo not drawn)
6.00	0.64	40	5.80		7.80	CNc1cc(Oc2ccc(NC(=O)Nc3cccc(C(F)(F)F)c3)cc2F)ncn1
5.80	1	0.5	< 5.70	5.49	5.49	O=C(Nc1ccc(Oc2cc(O)ncn2)cc1)Nc1cccc(C(F)(F)F)c1
5.80	0.1	16	6.40	7.00	8.00	COc1ccc2ncnc(Oc3ccc(NC(=O)Nc4cccc(C(F)(F)F)c4)cc3)c2c1
6.40		13	6.20	7.49	7.72	CCCNc1cc(Oc2ccc(NC(=O)Nc3cccc(C(F)(F)F)c3)cc2)ncn1
5.20	1.3	62	< 5.70	7.00	6.89	CNc1cc(Oc2ccc(NC(=O)Nc3cccc(C(F)F)c3)cc2)ncn1
6.00	0.4	6.3	5.90	6.80	7.20	Cc1cc(Oc2ccc(NC(=O)Nc3cccc(C(F)(F)F)c3)cc2)ncn1
8.30	0.5	0.2	7.00	7.60	7.89	CNc1cc(Oc2ccc(NC(=O)Nc3cccc(C(F)(F)F)c3)c3ccccc23)ncn1
7.10	0.07	4	7.49	7.70	8.89	CC(=O)Nc1cc(Oc2ccc(NC(=O)Nc3cccc(C(F)(F)F)c3)cc2)ncn1
6.30	0.16	31	6.40	7.80	8.60	O=C(Nc1ccc(Oc2ncnc3[nH]ccc23)cc1)Nc1cccc(C(F)(F)F)c1
5.70	1	0.8	6.00	5.60	5.60	CN(C)c1cc(Oc2ccc(NC(=O)Nc3cccc(C(F)(F)F)c3)cc2)ncn1

pIC50 [1]	Ratio IC50 (Homo sapiens [2])	Ratio IC50 (Homo sapiens [3])	pIC50 [4]	pIC50 [5]	pIC50 [6]	Compound
< 4.60	0.63	> 20	< 5.70	5.90	6.10	CNc1cc(Oc2ccc(NC(=O)Nc3cccc(C)c3)cc2)ncn1
5.70	5.1	25	< 5.70	7.10	6.40	CNc1cc(Oc2c(C)cc(NC(=O)Nc3cccc(C(F)(F)F)c3)cc2Cl)ncn1
5.30	63	160	< 5.70	7.49	5.70	CNc1cc(Oc2cc(C)c(NC(=O)Nc3cccc(C(F)(F)F)c3)cc2C)ncn1
7.30	0.32	5	6.70	8.00	8.49	O=C(Nc1ccc(Oc2cc(Nc3cccc(CN4CCCC4)c3)ncn2)cc1)Nc1cccc(C(F)(F)F)c1
6.40	1.3	10	6.10	7.40	7.30	CC(C)Nc1cc(Oc2ccc(NC(=O)Nc3cccc(C(F)(F)F)c3)cc2)ncn1
6.00	0.63	25	6.40	7.40	7.60	CNc1cc(Oc2ccc(NC(=O)Nc3cccc(C(C)(C)C)c3)cc2)ncn1
4.80	0.65	80	< 5.70	6.70	6.89	CCc1cccc(NC(=O)Nc2ccc(Oc3cc(NC)ncn3)cc2)c1
6.40	0.04	40	6.20	8.00	9.40	O=C(O)Cc1cccc(Nc2cc(Oc3ccc(NC(=O)Nc4cccc(C(F)(F)F)c4)cc3)ncn2)c1
6.49	0.64	13	6.30	7.60	7.80	CCNc1cc(Oc2ccc(NC(=O)Nc3cccc(C(F)(F)F)c3)cc2)ncn1
6.49	0.05	4		7.10	8.40	CNC(=O)c1cc(Oc2ccc(NC(=O)Nc3cccc(C(F)(F)F)c3)cc2)ccn1
6.10	1	16	6.30	7.30	7.30	CNc1cc(Oc2ccc(NC(=O)Nc3cccc(C(F)(F)F)c3)cc2Cl)ncn1
5.90	0.4	1.6	5.90	6.10	6.49	O=C(Nc1ccc(Oc2ncnc3ccccc23)cc1)Nc1cccc(C(F)(F)F)c1
6.40	0.1	6.3	7.20	7.20	8.20	CNc1cc(Oc2ccc(NC(=O)Nc3cccc(C(F)(F)F)c3)c(F)c2)ncn1
6.00		< 0.02	5.90	< 4.30	< 5.00	Cc1cc(Oc2ccc(NC(=O)Nc3cccc(C(F)(F)F)c3)cc2)c2ccccc2n1
< 4.60	1	> 4	< 5.70	5.20	5.20	CNc1cc(Oc2ccc(NC(=O)Nc3ccccc3)cc2)ncn1
6.89	5	4	< 5.70	7.49	6.80	CNc1cc(Oc2c(C)cc(NC(=O)Nc3cccc(C(F)(F)F)c3)c3ccccc23)ncn1
6.30	3.2	8	6.00	7.20	6.70	C[C@@H](O)CNc1cc(Oc2ccc(NC(=O)Nc3cccc(C(F)(F)F)c3)cc2)ncn1
5.90	0.1	0.3	< 5.70	5.40	6.40	COc1cc(Oc2ccc(NC(=O)Nc3cccc(C(F)(F)F)c3)cc2)ncn1
